Data on one molecule can be found in patent publication US10934346B2, “Modified T cell comprising a polynucleotide encoding an inducible stimulating molecule comprising MyD88, CD40 and FKBP12” (priority 2014, dated 2021).

“Also recorded” adds a separate entry of the source.

The subject of one assay is cells. Nature of the assay: Amount of AP1903 needed in vitro for effective signaling of cells. Format: cell-based. The procedure:
The fixed dose of AP1903 for injection used, for example, may be 0.4 mg/kg intravenously infused over 2 hours. The amount of AP1903 needed in vitro for effective signaling of cells is about 10-100 nM (MW: 1412 Da). This equates to 14-140 μg/L or ˜0.014-0.14 mg/kg ([…]). The dosage may vary according to the application, and may, in certain examples, be more in the range of 0.1-10 nM, or in the range of 50-150 nM, 10-200 nM, 75-125 nM, 100-500 nM, 100-600 nM, 100-700 nM, 100-800 nM, or 100-900 nM. Doses up to 1 mg/kg were well-tolerated in the Phase I study of AP1903 described above.

For another assay, the system named is Capan-1-GFP tumor cells. The experiment in a line: Coculture of CAR/iMC T cells with Capan-1-GFP tumor cells. To be noted: 10 nM rimiducid, PSCA.ζ CAR and iMC T cells, 7 days.
The next assay has as its system CAPAN-1 GFP+ tumor cells. The experiment in a line: Co-culture of iMC-enabled T cells with CAPAN-1-GFP tumor cells. In kind it is cell-based, human. To be noted: 10 nM AP1903, 5:1 T cells to tumor cells, 72 hours, RV-172 T cells. The procedure:
FIG. 53 Activation of iMC-transduced T cells with AP1903 induces T cell killing of tumor cells. […] Co-cultures were cultured with or without 10 nM AP1903. After 72 hours, co-cultures were analyzed for GFP^+ tumor cells (X-axis) by flow cytometry.
FIG. 55: Activation of iMC-transduced T cells with AP1903 induces T cell killing of tumor cells. […] Co-cultures were cultured with or without 10 nM AP1903. After 72 hours, co-cultures were analyzed for GFP^+ tumor cells by flow cytometry (n=2).
FIG. 56: Activation of iMC-transduced T cells with AP1903 induces T cell killing of tumor cells. […] Co-cultures were cultured with or without 10 nM AP1903.
3. Non-transduced T cells or cells transduced with RV-171 (control vector) or RV-172 (iMC vector) were cultured at a 5:1 ratio of T cells to tumor cells in media supplemented with 50 U/ml IL-2, and either with or without 10 nM AP1903. Co-cultures were then incubated at 37° C. and 5% CO2 for 72 hours. Cultures were subsequently analyzed for the presence of GFP^+ tumor cells by fluorescent microscopy and by harvesting the cultures with 0.25% trypsin/EDTA and measuring the frequency of GFP^+CD3^− tumor cells in the culture by flow cytometry.

Another assay relates to Capan-1 tumor. The experiment in a line: Capan-1 tumor xenograft in NSG mice with T cell bioluminescence imaging. In kind it is in vivo. The procedure: FIG. 3A) Shorn mice were engrafted with Capan-1 tumor cells and treated with PSCA.ζ CAR T cells cotransduced with control vector or iMC, or non-transduced T cells, and injected i.v. on days 7 and 14. Exogenous IL-2 was given i.p. until day 21 and then withdrawn. All mice received 5 mg/kg rimiducid i.p. twice per week (biw). Tumor size was measured by calipers (FIG. 3B) and survival assessed over a 100-day period (FIG. 3C). FIG. 3D) to measure in vivo CAR T cell persistence and expansion, NSG mice were used. Mice were injected s.c. with Capan-1 tumor cells and then treated with non-transduced (NT) or FKBP and PSCA.ζ-modified T cells or iMC and PSCA.ζ-modified T cells. Mice treated with iMC-enabled T cells received 2.5 mg/kg rimiducid once (qw), twice weekly (biw) or saline only via i.p. injection. FIG. 3E) Subcutaneous tumor size was measured by calipers over a 30 day period.
FIG. 3F) In vivo bioluminescence imaging was performed on mice treated with iMC-transduced T cells receiving saline only, or with systemic rimiducid administration. […]
In vivo studies. […] Tumors were measured by calipers and tumor size calculated. […] Photon emission was analyzed by constant region-of-interest (ROI) drawn over the tumor region and the signal measured as total counts as previously validated^10. As above, efficacy was assessed by measuring tumors using calipers. […]

`CC[C@H](C(=O)N1CCCC[C@H]1C(=O)O[C@H](CCc1ccc(OC)c(OC)c1)c1cccc(OCC(=O)NCCNC(=O)COc2cccc([C@@H](CCc3ccc(OC)c(OC)c3)OC(=O)[C@@H]3CCCCN3C(=O)[C@@H](CC)c3cc(OC)c(OC)c(OC)c3)c2)c1)c1cc(OC)c(OC)c(OC)c1` (relative stereo) [rimiducid, 2-Piperidinecarboxylic acid, 1-[(2S)-1-oxo-2-(3,4,5-trimethoxyphenyl)butyl]-, 1,2-ethanediylbis [imino(2-oxo-2,1-ethanediyl)oxy-3,1-phenylene[(1R)-3-(3,4-Dimethoxyphenyl)propylidene]] ester, [2S-[1(R*),2R*[S*[S*[1(R*),2R*]]]]]-(9Cl)]: in the assay on cells, the “amount needed in vitro for effective signaling of cells” value fell in the range of 10 to 100 nM. For the same molecule, the “amount needed for effective signaling, converted” value in the assay on cells (MW: 1412 Da) lay in the range of 14 to 140 µg/L. The “Capan-1-GFP tumor cell elimination” value in the assay on Capan-1-GFP tumor cells is recorded as “further enhanced Capan-1-GFP elimination”. In the assay with CAPAN-1 GFP+ tumor cells, the “GFP+ tumor cells remaining” value is “elimination of GFP^+ tumor cells; also recorded: showed very few viable GFP^+ tumor cells”. In the assay on Capan-1 tumor (rimiducid 2.5 mg/kg once or twice weekly, iMC and PSCA.ζ T cells), the tumor control entry is listed as “enabled enhanced tumor control”. In addition, the “T cell bioluminescence (BLI)” value in the assay on Capan-1 tumor (systemically and at the subcutaneous tumor site) is on record as “dramatic increase in T cell BLI”.
